In patent US20260327243A1, “SPIRO-HETEROCYCLIC INHIBITORS OF KRAS G12C MUTANT PROTEINS AND USES THEREOF” (AMGEN INC., priority 2023, published 2026):

Columns and labels:
MIA PaCa-2 cells = assay: Cell Viability Assay, MIA PaCa-2; format: cell-based; conditions: human pancreatic carcinoma, CellTiter-Glo
Procedure: (§1) MIA PaCa-2 (human pancreatic carcinoma; ATCC CRL-1420) or A549 (human lung carcinoma; ATCC CCL-185) cells were cultured in RPMI 1640 medium containing 10% fetal bovine serum and 1×penicillin/streptomycin/L-glutamine. Cells were seeded in 384-well plates at a density of 1.67E+04 cells/mL and incubated at 37° C., 5% CO2, overnight. Serially-diluted compound or DMSO was added to the cells, and plates were incubated at 37° C., 5% CO2 for 72 h. Cell viability was measured using a CellTiter-Glo® Luminescent Cell Viability Assay kit (Promega) according to the manufacturer's protocol. The luminescence signal of treated samples was normalized to DMSO control, and data were analyzed using a 4-parameter logistic model to calculate IC50 values.
(§2) The following data (Table 3) categorizes the IC50 of each compound for inhibiting enzymatic activity of KRAS^G12C in the indicated cells.

A549 cells = assay: Cell Viability Assay, A549; format: cell-based; conditions: human lung carcinoma, 72 h, CellTiter-Glo
Procedure: as §1, §2

KRAS^G12C = KRAS^G12C (Homo sapiens, UniProt P01116, C118A/G12C); assay: Coupled Nucleotide Exchange Assay; format: biochemical; conditions: GDP-bound KRAS (aa 1-169) G12C/C118A; 2 h compound pre-incubation; SOS-mediated exchange, 30 min; cRAF binding (AlphaLISA)
Procedure: The KRAS^G12C coupled nucleotide exchange assay allows for the screening and profiling of KRAS^G12C antagonists/inhibitors by monitoring the binding of an effector protein (e.g., a Ras binding domain of Raf1, RBD-cRaf) to KRAS^G12C. Purified GDP-bound KRAS protein (aa 1-169), containing both G12C and C118A amino acid substitutions and an N-terminal His-tag, was pre-incubated in assay buffer (25 mM HEPES pH 7.4, 10 mM MgCl2, 0.01% Triton X-100, either with or without 0.1% BSA) with serially diluted compound for 2 h. For all subsequent steps, BSA was omitted and DTT was added to the reaction buffer at a final concentration of 1 mM. Following compound pre-incubation, purified SOS protein (aa 564-1049) and GTP (Roche 10106399001) were added to the assay wells and incubated for an additional 30 min. To determine the extent of inhibition of SOS-mediated nucleotide exchange, purified GST-tagged cRAF (aa 1-149), nickel chelate AlphaLISA acceptor beads (PerkinElmer AL108R), and AlphaScreen glutathione donor beads (PerkinElmer 6765302) were added to the assay wells and incubated for 5-30 min. The assay plates were then read on a plate reader measuring luminescence signal. Signal intensity of compound-containing wells were normalized to DMSO control, and data were analyzed using a 4-parameter logistic model to calculate IC50 values.

Chain of KRAS^G12C (P01116 1-169 isoform P01116-2 G12C/C118A): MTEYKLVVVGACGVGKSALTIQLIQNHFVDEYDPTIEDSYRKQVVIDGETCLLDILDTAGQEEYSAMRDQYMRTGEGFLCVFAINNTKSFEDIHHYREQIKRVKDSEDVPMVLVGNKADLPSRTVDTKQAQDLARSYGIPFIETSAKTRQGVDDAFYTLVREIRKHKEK

SMILES: C=CC(=O)N1CCN([C@@H]2CN(c3cc(N4CCC5(OCC=C5C)C(C)C4)nc(C(F)(F)F)n3)[C@@H]2C)CC1 (relative stereo) [Compound 3-060, 1-(4-((2R,3R)-1-(6-((5R,6S)-4,6-Dimethyl-1-oxa-8-azaspiro[4.5]dec-3-en-8-yl)-2-(trifluoromethyl)pyrimidin-4-yl)-2-methylazetidin-3-yl)piperazin-1-yl) prop-2-en-1-one]
- IC50 (MIA PaCa-2 cells; Homo sapiens, MIA PaCa-2, 72 h): 1090 nM
- IC50 (A549 cells; A549): > 5000 nM
- IC50 (KRAS^G12C): 406 nM

SMILES: C=CC(=O)N1CCN(C2CN(c3cc(N4CCC5(CC4)OC(C)C=C5C)nc(C(F)(F)F)c3C#N)C2)CC1 (single isomer, unassigned) [Compound 3-054-1]
- IC50 (MIA PaCa-2 cells; 72 h): 603 nM
- IC50 (A549 cells; A549): > 5000 nM
- IC50 (KRAS^G12C): 128 nM

SMILES: C=CC(=O)N1CCN(C2CN(c3cc(N4CCC5(CC4)OC(C)C=C5C)nc(C(F)(F)F)c3C#N)C2)CC1 (single isomer, unassigned) [Compound 3-054-2]
- IC50 (MIA PaCa-2 cells; 72 h): 1490 nM
- IC50 (A549 cells): > 5000 nM
- IC50 (KRAS^G12C): 381 nM

SMILES: C=CC(=O)N1CCN(C2CN(c3cc(N4CCC5(CC4)O[C@H](C)C=C5Cl)nc(C(F)(F)F)c3C#N)C2)CC1 (single isomer, unassigned) [Compound 3-067-1]
- IC50 (MIA PaCa-2 cells; Homo sapiens, MIA PaCa-2, 72 h): 1310 nM
- IC50 (A549 cells; A549): > 5000 nM
- IC50 (KRAS^G12C): 527 nM

SMILES: C=CC(=O)N1CCN([C@@H]2CN(c3cc(N4CC[C@]5(C[C@H]4C)OC[C@@H](CO)n4ncc(C)c45)nc(C(F)(F)F)n3)[C@@H]2C)CC1 (single isomer, unassigned) [Compound 3-087-1]
- IC50 (MIA PaCa-2 cells; Homo sapiens, MIA PaCa-2, 72 h): 78 nM
- IC50 (A549 cells; A549): > 5000 nM
- IC50 (KRAS^G12C): 48 nM

SMILES: C=CC(=O)N1CCN([C@@H]2CN(c3cc(N4CC[C@]5(C[C@H]4C)OC[C@H](CO)n4ncc(C)c45)nc(C(F)(F)F)n3)[C@@H]2C)CC1 (single isomer, unassigned) [Compound 3-087-2]
- IC50 (MIA PaCa-2 cells; Homo sapiens, MIA PaCa-2, 72 h): 142 nM
- IC50 (A549 cells; A549): > 5000 nM
- IC50 (KRAS^G12C): 87 nM

SMILES: C=CC(=O)N1CCN([C@@H]2CN(c3cc(N4CC[C@]5(C[C@H]4C)OC[C@@H](CO)n4ncc(C)c45)nc(C(F)F)n3)[C@@H]2C)CC1 (single isomer, unassigned) [Compound 3-088-1]
- IC50 (MIA PaCa-2 cells; Homo sapiens, MIA PaCa-2, 72 h): 189 nM
- IC50 (A549 cells; A549): > 5000 nM
- IC50 (KRAS^G12C): 106 nM

SMILES: C=CC(=O)N1CCN([C@@H]2CN(c3cc(N4CC[C@]5(C[C@H]4C)OC[C@H](CO)n4ncc(C)c45)nc(C(F)F)n3)[C@@H]2C)CC1 (single isomer, unassigned) [Compound 3-088-2]
- IC50 (MIA PaCa-2 cells; Homo sapiens, MIA PaCa-2, 72 h): 128 nM
- IC50 (A549 cells; A549): > 5000 nM
- IC50 (KRAS^G12C): 72 nM

SMILES: C=CC(=O)N1CCN([C@@H]2CN(c3cc(N4CC[C@]5(C[C@H]4C)OC[C@H](COC)n4ncc(C)c45)nc(C(F)(F)F)n3)[C@@H]2C)CC1 (single isomer, unassigned) [Compound 3-089-1]
- IC50 (MIA PaCa-2 cells; Homo sapiens, MIA PaCa-2, 72 h): 102 nM
- IC50 (A549 cells; A549): > 5000 nM
- IC50 (KRAS^G12C): 42 nM

SMILES: C=CC(=O)N1CCN([C@@H]2CN(c3cc(N4CC[C@]5(C[C@H]4C)OC[C@@H](COC)n4ncc(C)c45)nc(C(F)F)n3)[C@@H]2C)CC1 (single isomer, unassigned) [Compound 3-090-1]
- IC50 (MIA PaCa-2 cells; Homo sapiens, MIA PaCa-2, 72 h): 193 nM
- IC50 (A549 cells; A549): > 5000 nM
- IC50 (KRAS^G12C): 145 nM

SMILES: C=CC(=O)N1CCN([C@@H]2CN(c3cc(N4CC[C@]5(C[C@H]4C)OCCc4ncsc45)nc(C(F)(F)F)n3)[C@@H]2C)CC1 (single isomer, unassigned) [Compound 3-091-1]
- IC50 (MIA PaCa-2 cells; Homo sapiens, MIA PaCa-2, 72 h): 331 nM
- IC50 (A549 cells; A549): > 5000 nM
- IC50 (KRAS^G12C): 54 nM

SMILES: C=CC(=O)N1CCN([C@@H]2CN(c3cc(N4CCC5(CC4)OCc4ncsc45)nc(C(F)(F)F)n3)[C@@H]2C)CC1 [Compound 3-001, 1-(4-((2R,3R)-1-(6-(4H-Spiro[furo[3,4-d]thiazole-6,4′-piperidin]-1′-yl)-2-(trifluoromethyl)pyrimidin-4-yl)-2-methylazetidin-3-yl)piperazin-1-yl) prop-2-en-1-one]
- IC50 (MIA PaCa-2 cells; Homo sapiens, MIA PaCa-2, 72 h): 665 nM
- IC50 (A549 cells; A549): > 5000 nM
- IC50 (KRAS^G12C): 376 nM

SMILES: C=CC(=O)N1CCN([C@@H]2CN(c3cc(N4CCC5(CC4)OCCc4ncsc45)nc(C(F)(F)F)n3)[C@@H]2C)CC1 [Compound 3-002, 1-(4-((2R,3R)-1-(6-(6′,7′-Dihydrospiro[piperidine-4,4′-pyrano[4,3-d]thiazol]-1-yl)-2-(trifluoromethyl)pyrimidin-4-yl)-2-methylazetidin-3-yl)piperazin-1-yl)prop-2-en-1-one]
- IC50 (MIA PaCa-2 cells; Homo sapiens, MIA PaCa-2, 72 h): 625 nM
- IC50 (A549 cells; A549): > 5000 nM
- IC50 (KRAS^G12C): 315 nM

SMILES: C=CC(=O)N1CCN([C@@H]2CN(c3cc(N4CCC5(C[C@H]4C)OCC=C5C)nc(C(F)F)n3)[C@@H]2C)CC1 (stereo partly drawn) [Compound 3-003, 1-(4-((2R,3R)-1-(2-(Difluoromethyl)-6-((7R)-4,7-dimethyl-1-oxa-8-azaspiro[4.5]dec-3-en-8-yl)pyrimidin-4-yl)-2-methylazetidin-3-yl)piperazin-1-yl) prop-2-en-1-one]
- IC50 (MIA PaCa-2 cells; Homo sapiens, MIA PaCa-2, 72 h): 832 nM
- IC50 (A549 cells; A549): > 5000 nM
- IC50 (KRAS^G12C): 512 nM

SMILES: C=CC(=O)N1CCN(C2CN(c3cc(N4CCC5(CC4)c4ccccc4C(=O)N5C)nc(C(F)(F)F)c3C#N)C2)CC1 [Compound 3-004, 4-(3-(4-Acryloylpiperazin-1-yl)azetidin-1-yl)-6-(2-methyl-3-oxospiro[isoindoline-1,4′-piperidin]-1′-yl)-2-(trifluoromethyl)nicotinonitrile]
- IC50 (MIA PaCa-2 cells; Homo sapiens, MIA PaCa-2, 72 h): 527 nM
- IC50 (A549 cells; A549): > 5000 nM
- IC50 (KRAS^G12C): 154 nM

SMILES: C=CC(=O)N1CCN([C@@H]2CN(c3cc(N4CCC5(C[C@H]4C)OCC=C5C)nc(C(F)(F)F)n3)[C@@H]2C)CC1 (stereo partly drawn) [Compound 3-005, 1-(4-((2R,3R)-1-(6-(4.7-dimethyl-1-oxa-8-azaspiro[4.5]dec-3-en-8-yl)-2-(trifluoromethyl)pyr-imidin-4-yl)-2-methylazetidin-3-yl)piperazin-1-yl)prop-2-en-1-one]
- IC50 (MIA PaCa-2 cells; Homo sapiens, MIA PaCa-2, 72 h): 626 nM
- IC50 (A549 cells; A549): > 5000 nM
- IC50 (KRAS^G12C): 184 nM

SMILES: C=CC(=O)N1CCN([C@@H]2CN(c3cc(N4CCC5(CC4)OCCC=C5C)nc(C(F)(F)F)n3)[C@@H]2C)CC1 [Compound 3-008, 1-(4-((2R.3R)-2-methyl-1-(6-(5-methyl-1-oxa-9-azaspiro[5.5]undec-4-en-9-yl)-2-(trifluorometh-yl)pyrimidin-4-yl)azetidin-3-yl)-piperazin-1-yl)prop-2-en-1-one]
- IC50 (MIA PaCa-2 cells; Homo sapiens, MIA PaCa-2, 72 h): 625 nM
- IC50 (KRAS^G12C): 275 nM

SMILES: C=CC(=O)N1CCN(C2CN(c3cc(N4CCC5(CC4)c4ccccc4CN5C)nc(C(F)(F)F)c3C#N)C2)CC1 [Compound 3-014]
- IC50 (MIA PaCa-2 cells; Homo sapiens, MIA PaCa-2, 72 h): 694 nM
- IC50 (A549 cells; A549): > 5000 nM
- IC50 (KRAS^G12C): 498 nM

SMILES: C=CC(=O)N1CCN(C2CN(c3cc(N4CCC5(CC4)COc4ccccc45)nc(C(F)(F)F)c3C#N)C2)CC1 [Compound 3-015]
- IC50 (MIA PaCa-2 cells; Homo sapiens, MIA PaCa-2, 72 h): 2760 nM
- IC50 (A549 cells; A549): > 5000 nM
- IC50 (KRAS^G12C): 669 nM

SMILES: C=CC(=O)N1CCN(C2CN(c3cc(N4CCC5(CCC(=O)N5)CC4)nc(C(F)(F)F)c3C#N)C2)CC1 [Compound 3-016]
- IC50 (MIA PaCa-2 cells; Homo sapiens, MIA PaCa-2, 72 h): > 5000 nM
- IC50 (A549 cells; A549): > 5000 nM
- IC50 (KRAS^G12C): 969 nM

SMILES: C=CC(=O)N1CCN([C@@H]2CN(c3cc(N4CCC5(CC4)OCc4nccc(C)c45)nc(C(F)F)n3)[C@@H]2C)CC1 [Compound 3-080]
- IC50 (KRAS^G12C): 353 nM

SMILES: C=CC(=O)N1CCN([C@@H]2CN(c3cc(N4CCC5(CC4)OCCc4nccc(C)c45)nc(C(F)(F)F)n3)[C@@H]2C)CC1 [Compound 3-085, 1-(4-((2R,3R)-2-methyl-1-(6-(4′-methyl-7′,8′-dihydrospiro[piperidine-4,5′-pyrano[4,3-b]pyridin]-1-yl)-2-(trifluoromethyl)pyrimidin-4-yl)azetidin-3-yl)piperazin-1-yl)prop-2-en-1-one]
- IC50 (MIA PaCa-2 cells; 72 h): 180 nM
- IC50 (A549 cells): > 5000 nM

SMILES: C=CC(=O)N1CCN([C@@H]2CN(c3cc(N4CCC5(CC4)COc4nccc(C)c45)nc(C(F)F)n3)[C@@H]2C)CC1 [Compound 3-086, 1-(4-((2R,3R)-1-(2-(difluoromethyl)-6-(4-methyl-2H-spiro[furo[2.3-b]pyridine-3,4′-piperidin]-1′-yl)pyrimidin-4-yl)-2-methylazetidin-3-yl)piperazin-1-yl)prop-2-en-1-one]
- IC50 (KRAS^G12C): 2910 nM

SMILES: C=CC(=O)N1CCN([C@@H]2CN(c3cc(N4CCC5(CC4)COc4nccc(C)c45)nc(C(F)(F)F)n3)[C@@H]2C)CC1 [Compound 3-092, 1-(4-((2R,3R)-2-methyl-1-(6-(4-methyl-1′H-spiro[furo[2,3-b]pyridine-3,4′-piperidin]-1′-yl)-2-(trifluoromethyl)-4-pyrimidinyl)-3-azetidinyl)-1-piperazinyl)-2-propen-1-one]
- IC50 (KRAS^G12C): 2400 nM
